Laboratory results from publication PMC8276771 (Bioorganic & medicinal chemistry letters, 2021).
pEC50, pIC50: −log10 of the molar value. Entries after “also recorded” stand apart in the source; their conditions may differ. One block for each compound: values may come before it.

Assays:
[1] = biological target: human P2Y6R (Homo sapiens, UniProt Q15077); test: Calcium mobilization; conditions: for fold reduction of P2Y6R potency relative to UDP 1 / P2Y6R activation (in words): calcium mobilization; for P2Y6R activation (in words): hP2Y6R
[2] = tested on: 46 receptors, channels and transporters; test: PDSP off-target panel; assay type: binding
[3] = tested on: rat CD73; conditions: rat CD73, 5 μM AMP substrate, ref Junker et al. [33], cited from earlier work
[4] = biological target: T1, hP2Y14R (Homo sapiens, UniProt Q15391); test: Fluorescent antagonist binding assay by flow cytometry of hP2Y14R-CHO cells
T1 sequence (Q15391 1-338): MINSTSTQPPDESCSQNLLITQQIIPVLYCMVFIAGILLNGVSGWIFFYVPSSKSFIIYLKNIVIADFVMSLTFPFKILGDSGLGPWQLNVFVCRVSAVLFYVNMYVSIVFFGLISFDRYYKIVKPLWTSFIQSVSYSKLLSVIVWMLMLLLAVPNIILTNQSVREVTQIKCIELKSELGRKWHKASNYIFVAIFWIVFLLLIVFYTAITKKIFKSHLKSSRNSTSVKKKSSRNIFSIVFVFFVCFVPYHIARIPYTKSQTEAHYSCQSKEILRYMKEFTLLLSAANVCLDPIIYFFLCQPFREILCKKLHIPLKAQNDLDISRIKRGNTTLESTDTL

[5] = tested on: hP2YR; conditions: cited from earlier work
[6] = tested on: hP2Y6R; conditions: read-out: hP2Y6R EC50; cited from earlier work
[7] = tested on: P2Y14R; conditions: cited from earlier work

human P2Y6R, sequence (Q15077 whole entry): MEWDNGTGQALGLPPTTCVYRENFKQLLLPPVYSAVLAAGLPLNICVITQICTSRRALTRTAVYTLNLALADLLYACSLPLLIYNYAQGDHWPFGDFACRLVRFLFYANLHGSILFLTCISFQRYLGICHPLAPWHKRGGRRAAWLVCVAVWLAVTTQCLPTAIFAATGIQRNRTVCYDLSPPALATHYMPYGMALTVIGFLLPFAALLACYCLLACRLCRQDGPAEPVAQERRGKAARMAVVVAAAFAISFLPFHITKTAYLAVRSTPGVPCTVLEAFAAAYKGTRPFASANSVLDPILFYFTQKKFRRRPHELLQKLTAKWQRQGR

- fold reduction of P2Y6R potency relative to UDP 1 [1]: 12 fold
Structure (SMILES): CCN(CC)CC.CCN(CC)CC.CO/N=c1/ccn([C@@H]2O[C@H](COP(=O)(O)OP(=O)(O)O)[C@@H](O)[C@H]2O)c(=O)[nH]1 [Compound 11]

- fold reduction of P2Y6R potency relative to UDP 1 [1]: 19 fold
Structure (SMILES): CCN(CC)CC.CCN(CC)CC.O=c1[nH]/c(=N/OCc2ccccc2)ccn1[C@@H]1O[C@H](COP(=O)(O)OP(=O)(O)O)[C@@H](O)[C@H]1O [Compound 13]

- off-target activities (significant = >50% binding inhibition at 10 μM) [2]: no significant
Structure (SMILES): O=c1ccn([C@@H]2O[C@H](COP(=O)(O)CP(=O)(O)O)[C@@H](O)[C@H]2O)c(=S)[nH]1 [Compound 14b, 2-thiouridine-5′-O-(α,β-methylene)diphosphate, reference compound]
- CD73 % inhibition at 1 μM ([3]; 1 μM): 7%

- selectivity between P2Y6R and P2Y14R (in words) [4]: nonselective
Structure (SMILES): CCN(CC)CC.CCN(CC)CC.O=c1[nH]c(=O)n([C@@H]2O[C@H](COP(=O)(O)CP(=O)(O)O)[C@@H](O)[C@H]2O)cc1F [Compound 16, 5-Fluoro-5′-αβ-methylene-UDP]
- pIC50 ([3]; read-out: CD73 IC50): < 6.00

- pEC50 [1]: 5.77
Structure (SMILES): O=c1[nH]/c(=N\OCc2ccc(S(F)(F)(F)(F)F)cc2)ccn1[C@@H]1O[C@H](COP(=O)(O)CP(=O)(O)O)[C@@H](O)[C@H]1O [Compound 27]

- selectivity between P2Y6R and P2Y14R (in words) [4]: nonselective
Structure (SMILES): CCN(CC)CC.CCN(CC)CC.O=C(/N=c1/ccn([C@@H]2O[C@H](COP(=O)(O)CP(=O)(O)O)[C@@H](O)[C@H]2O)c(=O)[nH]1)c1ccccc1 [Compound 30]

Structure (SMILES): CCN(CC)CC.CCN(CC)CC.Cn1c(=O)n([C@@H]2O[C@H](COP(=O)(O)CP(=O)(O)O)[C@@H](O)[C@H]2O)cc/c1=N/OCc1ccccc1 [Compound 37]
- P2Y6R activation (in words) [1]: completely prevent P2Y6R activation; also recorded: prevented P2Y6R activation

Structure (SMILES): CCN(CC)CC.CCN(CC)CC.CCn1c(=O)n([C@@H]2O[C@H](COP(=O)(O)CP(=O)(O)O)[C@@H](O)[C@H]2O)cc/c1=N/OCc1ccccc1 [Compound 38]
- P2Y6R activation (in words) [1]: completely prevent P2Y6R activation; also recorded: prevented P2Y6R activation

Structure (SMILES): O=c1ccn([C@@H]2O[C@H](COP(=O)(O)CP(=O)(O)O)[C@@H](O)[C@@H]2O)c(=O)[nH]1 [Compound 39]
- P2Y6R activation (in words) [1]: completely prevent P2Y6R activation; also recorded: prevented P2Y6R activation

Structure (SMILES): O=c1cnn([C@@H]2O[C@H](COP(=O)(O)CP(=O)(O)O)[C@@H](O)[C@H]2O)c(=O)[nH]1 [Compound 40]
- P2Y6R activation (in words) [1]: completely prevent P2Y6R activation; also recorded: prevented P2Y6R activation

Structure (SMILES): O=c1ccn([C@@H]2O[C@H](COP(=O)(O)O)[C@@H](O)[C@H]2O)c(=O)[nH]1 [UMP]
- activation of hP2YRs (in words) [5]: does not activate any hP2YR

Structure (SMILES): O=c1ccn([C@@H]2O[C@H](COP(=O)(O)OP(=O)(O)OP(=O)(O)O)[C@@H](O)[C@H]2O)c(=O)[nH]1 [UTP]
- pEC50 [6]: < 5.00
- P2Y14R activity (in words) [7]: inactive
